{"source": "paper PMC11796312", "about": "“Multifunctional, Fluorene‐Based Modulator of Cholinergic and GABAergic Neurotransmission as a Novel Drug Candidate for Palliative Treatment of Alzheimer's Disease” (Angewandte Chemie (International Ed. in English), 2024)", "key": {"[1]": {"biological_target": "T1, human butyrylcholinesterase (hBuChE) (Homo sapiens, UniProt P06276)", "T1 construct": "from human plasma was from Vivonics (Bedford, MA, USA); purchased Vivonics (Bedford, MA, USA); host or cells: human plasma", "T1 sequence (P06276 29-602)": "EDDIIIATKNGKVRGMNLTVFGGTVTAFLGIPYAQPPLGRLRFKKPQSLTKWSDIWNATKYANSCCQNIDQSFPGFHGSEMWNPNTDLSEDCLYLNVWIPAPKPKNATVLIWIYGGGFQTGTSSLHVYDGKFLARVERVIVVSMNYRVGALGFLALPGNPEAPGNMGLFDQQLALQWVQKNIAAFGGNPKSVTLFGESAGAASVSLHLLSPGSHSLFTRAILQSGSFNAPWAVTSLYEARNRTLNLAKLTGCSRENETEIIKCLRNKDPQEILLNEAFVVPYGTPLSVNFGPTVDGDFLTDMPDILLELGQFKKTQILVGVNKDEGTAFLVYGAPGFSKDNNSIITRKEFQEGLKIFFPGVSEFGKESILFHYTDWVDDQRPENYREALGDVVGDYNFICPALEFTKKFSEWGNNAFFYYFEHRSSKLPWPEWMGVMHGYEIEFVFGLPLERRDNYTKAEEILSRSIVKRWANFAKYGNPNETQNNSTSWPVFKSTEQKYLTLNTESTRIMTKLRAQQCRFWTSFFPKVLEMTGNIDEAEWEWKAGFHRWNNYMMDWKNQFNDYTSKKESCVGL", "test": "biochemical", "details": "means±SEM of at least three experiments"}, "[2]": {"biological_target": "T2, human serotonin 5-HT7 receptor (Homo sapiens, UniProt P34969)", "T2 construct": "host or cells: CHO-K1 (with CRE-bla reporter)", "T2 sequence (P34969 whole entry)": "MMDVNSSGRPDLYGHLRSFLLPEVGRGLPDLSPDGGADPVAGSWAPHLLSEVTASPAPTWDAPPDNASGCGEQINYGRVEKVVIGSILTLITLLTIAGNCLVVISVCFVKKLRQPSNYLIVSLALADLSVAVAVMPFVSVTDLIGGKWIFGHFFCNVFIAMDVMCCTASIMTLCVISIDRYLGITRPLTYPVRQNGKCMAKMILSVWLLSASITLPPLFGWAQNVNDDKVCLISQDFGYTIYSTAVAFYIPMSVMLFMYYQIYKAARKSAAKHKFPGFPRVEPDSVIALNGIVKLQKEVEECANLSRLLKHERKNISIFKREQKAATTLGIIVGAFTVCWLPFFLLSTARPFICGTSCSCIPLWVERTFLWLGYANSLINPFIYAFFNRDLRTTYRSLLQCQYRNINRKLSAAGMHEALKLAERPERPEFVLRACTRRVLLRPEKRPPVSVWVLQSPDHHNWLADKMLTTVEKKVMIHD", "test": "cAMP 5-HT7 functional assay", "format": "cell-based", "procedure": "Functional assays for 5-HT7 receptor\nTest and reference compounds were dissolved in dimethyl sulfoxide (DMSO) at a\nconcentration of 10 mM. Serial dilutions were prepared in a 96-well microplate in assay\nbuffer, and 8 to 10 concentrations were tested. For the 5-HT7, adenylyl cyclase activity was\nThe functional assay was performed on cells expressing the human 5-\nCHO-K1 cells were transfected with a beta-\nlactamase (bla) reporter gene under the control of the cyclic AMP response element (CRE)\n(Life Technologies). Thawed cells were resuspended in stimulation buffer (HBSS, 5 mM\nHEPES, 0.5 IBMX, and 0.1% BSA at pH 7.4) at 2x10^5 cells/ml for 5-HT7 receptor. The same\nvolume (10 μl) of cell suspension was added to tested compounds for the 5 -HT7 receptor.\nSamples were loaded onto a white opaque half-area 96-well microplate. The antagonist\nThe agonist and antagonist were added simultaneously. Cell stimulation was\nperformed for 1 h at room temperature. After incubation, cAMP measurements were\nperformed with homogeneous TR-FRET immunoassay using the LANCE Ultra cAMP kit\n(PerkinElmer, USA). The volume of 10 μl of EucAMP Tracer Working Solution and 10 μl of\nULight-anti-cAMP Tracer Working Solution were added, mixed, and incubated for 1 h.\nTR-FRET signal was read on an EnVision microplate reader (PerkinElmer, USA). IC50 and\nEC50 were determined by nonlinear regression analysis using GraphPad Prism 9.0 software."}, "[3]": {"tested_on": "mouse microglial cells SIM-A9", "test": "MTT cell viability assay, SIM-A9", "format": "cell-based", "details": "Mus musculus, SIM-A9, 24 h; read-out: IC50 (MTT) ± SEM", "from_the_text": "Human neuroblastoma cells SH-SY5Y and mouse microglial cells SIM-A9 were used to evaluate cell viability, intracellular RONS, and malondialdehyde (MDA; CAS No. 542–78-9).\nSH-SY5y cells were cultivated in Dulbecco's modified Eagle's medium (DMEM; Biosera, Nuaille, France) supplemented with 10% fetal bovine serum (Biosera) and 1% penicillin-streptomycin antibiotic solution (Sigma-Aldrich, St. Louis, MO, USA). The culture medium for SIM-A9 cells was further supplemented with donor horse serum (Biosera). The cells were incubated at 37 °C in a CO2 incubator (BINDER CO2 incubator CB 160, Tuttlingen, Germany) and routinely passaged by trypsinization at 75 –85% confluence.\nColorimetric Cell Viability Assay\nThe toxicological indices IC 50 used in the present study were measured utilizing 3-(4,5-dimethylthiazol-2-yl)-2,5-diphenyl-tetrazolium bromide (MTT) reduction assay after (1 picture or pasted object on this page, not shown here)\n24 h incubation with tested compounds. […]\nincubation, the cultivation medium containing serially diluted substances was aspirated and replaced with a fresh medium containing MTT at a concentration of 0.5 mg/mL and subsequently incubated at 37 °C for 1 h. […] Cell viability was assessed spectrophotometrically by the amount of formazan produced. Absorbance was measured at 570 nm with 650 nm reference wavelength on Spark (Tecan Group Ltd, Switzerland). […]"}, "[4]": {"test": "Stability in plasma (UHPLC-MS method validation)", "format": "in vitro ADME", "details": "rat plasma", "from_the_text": "UHPLC-MS method for pharmacokinetics study\nUltra high-performance liquid chromatography system consisting of Ultimate 3000 RS pump Dionex (Thermo Scientific, San Jose, CA, USA) coupled with high-resolution mass spectrometer with orbitrap analyzer (Q Exactive Focus, Thermo Scientific, San Jose, CA, USA) was used in quantitative analyses of 6 in plasma and brain homogenate. According to the EMA[43] and FDA[42] guidelines on Bioanalytical method validation, the method was fully validated for plasma and partially for brain homogenate. All the evaluated parameters met the […]\nTable S12. Summary of validation results (precision and accuracy) in plasma for five different concentrations - limit of quantitation(LLOQ), low (QC A), mid (QC B), high (QC C) a dilution (QC D) level. […]\nStability evaluation in rat plasma as deviation from the reference value (100%)"}, "BuChE": {"tested_on": "BuChE", "details": "1 or 5 µM compound (printed '1 or 5 M'), vs DMSO"}}, "note": "Where two headings read alike, the source gives them in different places."}
{"compound": "O[C@H](CNCC1CC1)[C@H](Cc1ccccc1)NC1c2ccccc2-c2ccccc21", "note": "[Compound 6]", "values": [{"measurement": "IC50", "setting": "[1]", "value": "0.21 ± 0.01", "unit": "µM"}, {"measurement": "Emax", "setting": "[2]; read-out: 5-HT7 agonist mode E max % [10^-5 M]", "value": 8, "unit": "%"}, {"measurement": "Emax", "setting": "[2]; read-out: 5-HT7 antagonist mode E max %", "value": 0, "unit": "%"}, {"measurement": "IC50", "setting": "[3]", "value": "6.46 ± 0.09", "unit": "µM"}, {"measurement": "Autosampler stability % (24h)", "setting": "[4]; QC B (33,50 ng/mL), vs reference value 100%", "value": "97,6 ± 1,5%"}, {"measurement": "Freeze-thaw stability % (3 cycles)", "setting": "[4]; QC B", "value": "95,8% ± 4,0"}, {"measurement": "Long-term stability % (3 month)", "setting": "[4]; QC B", "value": "109,9 ± 0,5%"}, {"measurement": "Autosampler stability % (24h)", "setting": "[4]; QC C (452,73 ng/mL)", "value": "94,6 ± 2,5%"}, {"measurement": "Freeze-thaw stability % (3 cycles)", "setting": "[4]; QC C", "value": "102,0 ± 4,7%"}, {"measurement": "Long-term stability % (3 month)", "setting": "[4]; QC C", "value": "105,7 ± 2,2%"}, {"measurement": "Melting temperature (Tm) of BuChE", "setting": "BuChE", "value": "increased Tm of BuChE"}]}
